Measurements published in patent US6706663B2, “Herbicidal 3-heterocyclic substituted benzisothiazole and benzisoxazole compounds” (Wyeth, priority 2000, dated 2004).

What was measured:
[1] = test system: ABUTH (Abutilon theophrasti); assay: Postemergence herbicidal evaluation; type: in vivo, Medic.; conditions: postemergence
In short: (§1)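 Seedlings grown about two weeks in flats, sprayed, then kept under standard greenhouse care. Rated visually 4–5 weeks after treatment on a 0–9 scale (stand, vigour, malformation, size, chlorosis, overall appearance) relative to untreated control; repeat tests averaged.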

[2] = test system: AMBEL (Ambrosia artemisifolia); assay: Postemergence herbicidal evaluation; type: in vivo, L.; conditions: postemergence
In short: as §1

[3] = test system: CASOB (Cassia obtusifolia); assay: Postemergence herbicidal evaluation; type: in vivo, L.; conditions: postemergence
In short: as §1

[4] = test system: CHEAL (Chenopodium album); assay: Postemergence herbicidal evaluation; type: in vivo, L.; conditions: postemergence
In short: as §1

[5] = test system: IPOHE (Ipomoea hederacea); assay: Postemergence herbicidal evaluation; type: in vivo, (L.) Jacq.; conditions: postemergence
In short: as §1

[6] = test system: GLXMAW (Soybean, Williams); assay: Postemergence herbicidal evaluation; type: in vivo, Glycine max, (L.) Merr. cv Williams; conditions: postemergence
In short: as §1

[7] = test system: ORYSAT (Rice, Tebonnet); assay: Postemergence herbicidal evaluation; type: in vivo, Oryza sativa, (L.) Tebonnet; conditions: postemergence
In short: as §1

[8] = test system: ABUTH (Abutilon theophrasti); assay: Preemergence herbicidal evaluation; type: in vivo, Medic.; conditions: rated 4-5 weeks after treatment
[9] = test system: AMBEL (Ambrosia artemisifolia); assay: Preemergence herbicidal evaluation; type: in vivo, L.; conditions: rated 4-5 weeks after treatment
In short: (§2)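 Scores (0–9) reflect visual comparison with control plants for stand, vigor, malformation, size and chlorosis. Seeds in potting soil received a post-planting spray of compound in aqueous acetone and grew in a greenhouse until assessment 4–5 weeks later.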

[10] = test system: CASOB (Cassia obtusifolia); assay: Preemergence herbicidal evaluation; type: in vivo, L.; conditions: rated 4-5 weeks after treatment
In short: as §2

[11] = test system: CHEAL (Chenopodium album); assay: Preemergence herbicidal evaluation; type: in vivo, L.; conditions: rated 4-5 weeks after treatment
In short: as §2

[12] = test system: IPOHE (Ipomoea hederacea); assay: Preemergence herbicidal evaluation; type: in vivo, (L.) Jacq.; conditions: rated 4-5 weeks after treatment
[13] = test system: ECHCG (Echinochloa crus-galli); assay: Preemergence herbicidal evaluation; type: in vivo, (L.) Beau; conditions: rated 4-5 weeks after treatment
In short: as §2

[14] = test system: SETVI (Setaria viridis); assay: Preemergence herbicidal evaluation; type: in vivo, (L.) Beau; conditions: rated 4-5 weeks after treatment
In short: as §2

[15] = test system: GLXMAW (Soybean, Williams); assay: Preemergence herbicidal evaluation; type: in vivo, Glycine max, (L.) Merr. cv Williams; conditions: rated 4-5 weeks after treatment
[16] = test system: TRZAWR (Wheat, Winter, cv Riband); assay: Preemergence herbicidal evaluation; type: in vivo, Triticum aestivum; conditions: rated 4-5 weeks after treatment
In short: as §2

[17] = test system: ZEAMX (Corn, Field); assay: Preemergence herbicidal evaluation; type: in vivo, Zea mays, L.; conditions: rated 4-5 weeks after treatment
[18] = test system: CYPIR (Cyperus iria); assay: Flooded paddy, preemergence weed control; type: in vivo; conditions: rated 3-4 weeks after treatment, 0-9 rating scale
In short: (§3)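 Plants were established from seed or propagating organs in flooded silt loam, with the water surface held 1.5 to 3 cm above the soil for the entire experiment. Injury was assessed visually against a control and given a 0-9 score.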

[19] = test system: MOOVA (Monochoria vaginalis); assay: Flooded paddy, preemergence weed control; type: in vivo, Presl.; conditions: rated 3-4 weeks after treatment, 0-9 rating scale
In short: as §3

[20] = test system: ORYSAT (Rice, Tebonnet); assay: Flooded paddy, post-transplant rice tolerance; type: in vivo, Oryza sativa, (L.) Tebonnet; conditions: flooded paddy, post-transplant rice, rated 3-4 weeks after treatment, 0-9 rating scale
In short: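 Scores (0-9) reflect visual injury relative to untreated plants in flooded silt loam. Each pot held two transplanted ten-day-old seedlings under 1.5 to 3 cm standing water in the greenhouse.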

CC(C)C1COC(c2nsc3ccc(-n4c(=O)cc(C(F)(F)F)n(C)c4=O)cc23)=N1 (centres unmarked) [Compound 74, 3-[3-(4-isopropyl-2-oxazolin-2-yl)-1,2-benzisothiazol-5-yl]-1-methyl-6-(trifluoromethyl)uracil]
5.0: Preemergence herbicidal rating TRZAWR ([16]; Rate 0.2500 kg/ha)
8.0: Preemergence herbicidal rating IPOHE ([12]; Rate 0.2500 kg/ha) | Preemergence herbicidal rating SETVI ([14]; Rate 0.2500 kg/ha)
5.5: GLXMAW herbicidal rating ([6]; rate 0.0320 kg/ha)
7.0: IPOHE herbicidal rating ([5]; rate 0.0320 kg/ha) | GLXMAW herbicidal rating ([6]; rate 0.0620 kg/ha) | Preemergence herbicidal rating ABUTH ([8]; Rate 0.1250 kg/ha)
1.5: herbicidal rating, ORYSAT (rice tolerance) ([20]; rate 0.0080 kg/ha)
0.0: Preemergence herbicidal rating AMBEL ([9]; Rate 0.0620 kg/ha) | Preemergence herbicidal rating CASOB ([10]; Rate 0.0620 kg/ha) | Preemergence herbicidal rating CASOB ([10]; Rate 0.1250 kg/ha) | Preemergence herbicidal rating IPOHE ([12]; Rate 0.0620 kg/ha) | Preemergence herbicidal rating IPOHE ([12]; Rate 0.1250 kg/ha) | Preemergence herbicidal rating ECHCG ([13]; Rate 0.0620 kg/ha) | Preemergence herbicidal rating SETVI ([14]; Rate 0.0620 kg/ha) | herbicidal rating, CYPIR ([18]; rate 0.0080 kg/ha)
4.5: herbicidal rating, MOOVA ([19]; rate 0.0080 kg/ha)
6.0: Preemergence herbicidal rating AMBEL ([9]; Rate 0.1250 kg/ha) | Preemergence herbicidal rating ECHCG ([13]; Rate 0.2500 kg/ha) | herbicidal rating, CYPIR ([18]; rate 0.0320 kg/ha) | herbicidal rating, ORYSAT (rice tolerance) ([20]; rate 0.1250 kg/ha)
1.0: CASOB herbicidal rating ([3]; rate 0.0620 kg/ha) | Preemergence herbicidal rating GLXMAW ([15]; Rate 0.0620 kg/ha) | Preemergence herbicidal rating GLXMAW ([15]; Rate 0.1250 kg/ha) | Preemergence herbicidal rating TRZAWR ([16]; Rate 0.0620 kg/ha)
9.0: ABUTH herbicidal rating ([1]; rate 0.0320 kg/ha) | ABUTH herbicidal rating ([1]; rate 0.0620 kg/ha) | AMBEL herbicidal rating ([2]; rate 0.0320 kg/ha) | AMBEL herbicidal rating ([2]; rate 0.0620 kg/ha) | CHEAL herbicidal rating ([4]; rate 0.0320 kg/ha) | CHEAL herbicidal rating ([4]; rate 0.0620 kg/ha) | IPOHE herbicidal rating ([5]; rate 0.0620 kg/ha) | Preemergence herbicidal rating ABUTH ([8]; Rate 0.2500 kg/ha) | Preemergence herbicidal rating AMBEL ([9]; Rate 0.2500 kg/ha) | Preemergence herbicidal rating CHEAL ([11]; Rate 0.0620 kg/ha) | Preemergence herbicidal rating CHEAL ([11]; Rate 0.1250 kg/ha) | Preemergence herbicidal rating CHEAL ([11]; Rate 0.2500 kg/ha) | Preemergence herbicidal rating GLXMAW ([15]; Rate 0.2500 kg/ha) | herbicidal rating, CYPIR ([18]; rate 0.1250 kg/ha) | herbicidal rating, MOOVA ([19]; rate 0.0320 kg/ha) | herbicidal rating, MOOVA ([19]; rate 0.1250 kg/ha)
2.0: CASOB herbicidal rating ([3]; rate 0.0320 kg/ha) | Preemergence herbicidal rating ECHCG ([13]; Rate 0.1250 kg/ha) | Preemergence herbicidal rating SETVI ([14]; Rate 0.1250 kg/ha) | Preemergence herbicidal rating TRZAWR ([16]; Rate 0.1250 kg/ha) | Preemergence herbicidal rating ZEAMX ([17]; Rate 0.0620 kg/ha) | Preemergence herbicidal rating ZEAMX ([17]; Rate 0.1250 kg/ha)
3.5: ORYSAT herbicidal rating ([7]; rate 0.0320 kg/ha)
3.0: Preemergence herbicidal rating ABUTH ([8]; Rate 0.0620 kg/ha) | Preemergence herbicidal rating CASOB ([10]; Rate 0.2500 kg/ha)
4.0: ORYSAT herbicidal rating ([7]; rate 0.0620 kg/ha) | Preemergence herbicidal rating ZEAMX ([17]; Rate 0.2500 kg/ha) | herbicidal rating, ORYSAT (rice tolerance) ([20]; rate 0.0320 kg/ha)
